Data taken from publication doi:10.1101/2025.11.27.691040v1 (biorxiv, 2025).

Target: T1, AtCKA1 (Arabidopsis thaliana, UniProt Q08467)
T1 sequence (Q08467 76-409): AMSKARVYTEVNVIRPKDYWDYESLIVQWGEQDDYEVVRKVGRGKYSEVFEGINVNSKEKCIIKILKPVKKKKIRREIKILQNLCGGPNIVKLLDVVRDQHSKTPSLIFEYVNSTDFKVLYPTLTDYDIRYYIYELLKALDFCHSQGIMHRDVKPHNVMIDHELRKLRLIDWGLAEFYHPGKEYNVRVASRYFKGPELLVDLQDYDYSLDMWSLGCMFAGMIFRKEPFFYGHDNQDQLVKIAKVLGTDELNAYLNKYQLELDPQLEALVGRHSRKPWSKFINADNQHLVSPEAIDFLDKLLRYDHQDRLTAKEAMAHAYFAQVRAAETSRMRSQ
Test: biochemical

Kd: 2 µM
SMILES: O=P(O)(O)O[C@H]1[C@H](OP(=O)(O)O)[C@@H](OP(=O)(O)O)[C@H](OP(=O)(O)O)[C@@H](OP(=O)(O)O)[C@H]1OP(=O)(O)O [InsP6]
